This note sets out measurements from patent US20220057378A1, “MICROBIAL MICROFLUIDIC BIOSENSOR” (priority 2015, published 2022).

Assay [1] concerns E. coli MG1655/Pb7. Nature of the assay: 8-strain chip induction (fluorescence induction ratio). In kind it is cell-based. The following applies: toxin at t=0, pure water at t=2 hours; arsenic 0.2, cadmium 0.05, chromium(VI) 0.5, copper 5, lead 1.8 μM. From the text:
(§1) An overview of the sensor can be seen in FIG. 39. In order to acquire the large amount of data required to successfully train the classifier, five replicates of the fully self-contained device prototype were built, in which the microfluidic devices are mounted and imaged using custom-designed optics as shown in some embodiments herein (Milestone 6.9). The majority of the data for this project was acquired using a novel microfluidic device capable of housing eight different bacterial strains that receive media from a shared source. […] The design was expanded to house 18 strains and we have begun taking data with this new chip to provide larger datasets to the classifier. A detailed CAD drawing of this device can be seen in FIG. 56. The 18 cell trapping regions are vacuum-loaded from 18 downstream fluidic ports. Long, serpentine channels upstream of the trapping regions serve as fluidic buffer zones to prevent the cross-contamination of strains while loading. The toxin concentration is controlled dynamically by a peristaltic pump that mixes a water/toxin combination (representing the source water stream) with a concentrated medium stock.
(§2) In each panel, the time series data for the “on-target” responding strain is plotted in bold.

For a further assay, the system named is GFP sensor strains. Nature of the assay: SVM classification of GFP sensor responses (toxin / no toxin). It is filed as cell-based. The note with it: from classification accuracy and ROC curves. From the text:
Computational models to determine the threshold of detection for specific sensors based on models of experimental GFP responses. We used machine learning techniques to determine the relationships between the GFP output signal and the presence of a toxin. We have created a database containing the collected sensor response data. We have quantified the GFP threshold of detection for each sensor construct. We have constructed Receiver Operating Characteristic (ROC) curves for each sensor to achieve robust sensing. We constructed machine learning models capable of inferring the relationships between the GFP sensor responses and the presence or absence of a toxin at a given concentration. The algorithm learns these relationships from a set of training samples (GFP sensor responses) defined by the set of experimental conditions from which they were generated. The aim of the algorithm is to provide a general method capable of determining the experimental conditions associated with GFP sensor responses through the use of historical data. Specifically, we have built classification models based on Support Vector Machines (SVMs), which is one of the most popular classifiers due to its excellent performance in many contexts and its solid mathematical basis (1). For each toxin and concentration, we solved a binary classification problem in which the positive class represents the presence of the toxin in water and the negative class is associated with clean environments. Patterns were constructed with features containing GFP sensor responses at various timestamps to capture the temporal dynamics of the GFP signal. The optimal meta-parameters of the SVM classifier were determined by applying a 5-crossvalidation during the training phase (2). In order to have a reliable estimate of the performance of the model when deployed in real environments, we measured its performance over a set of samples (test patterns) not seen during the training phase. The SVM's performance was determined by the percentage of test samples correctly labeled as toxin/no toxin (classification accuracy). 80% of samples were used for training the SVM models and the remaining 20% of samples was used to evaluate their effectiveness. We generated 20 random training/test partitions to have an estimate of performance independent of the data partition.
Specifically, we have built classification models based on Support Vector Machines (SVMs), which is one of the most popular classifiers due to its excellent performance in many contexts and its solid mathematical basis. For each toxin and concentration, we solved a binary classification problem in which the positive class represents the presence of the toxin in water and the negative class is associated with clean environments. Patterns were constructed with features containing GFP sensor responses at various timestamps to capture the temporal dynamics of the GFP signal. The optimal meta-parameters of the SVM classifier were determined by applying a 5-crossvalidation during the training phase.
In order to have a reliable estimate of the performance of the model when deployed in real environments, we measured its performance over a set of samples (test patterns) not seen during the training phase. The SVM's performance was determined by the percentage of test samples correctly labeled as toxin/no toxin (classification accuracy). 80% of samples were used for training the SVM models and the remaining 20% of samples was used to evaluate their effectiveness. We generated 20 random training/test partitions based on data collected in single-strain chips (no crosstalk data) to have an estimate of performance.

In the next assay the test system is E. coli MG1655/Cd1. Description: 8-strain chip induction (fluorescence induction ratio). The following applies: toxin at t=0, pure water at t=2 hours; cadmium 0.05, lead 1.8 μM. It is filed as cell-based.
Text: as §1, §2

The test system of assay [2] is E. coli MG1655/Hg3. The assay is described as above. In kind it is cell-based. The note with it: toxin at t=0, pure water at t=2 hours; cadmium 0.05, mercury 0.2 μM.
Text: as §1, §2

A further assay deals with E. coli MG1655/Cu1. Described as above. It is filed as cell-based. The note with it: toxin at t=0, pure water at t=2 hours; copper 5, lead 1.8 μM.
Text: as §1, §2

Assay [3] relates to E. coli MG1655 containing pCueCopA. Nature of the assay: on-chip step-induction of copper-sensing plasmid pCueCopA (GFP). The note with it: pCueCopA in E. coli MG1655, LB medium. In kind it is cell-based. As to the method:
Second, induction of pCue-CopA, a copper-sensing plasmid, was tested in the microfluidic device. A recombinant strain of E. coli MG1655 containing pCueCopA was vacuum-loaded into a microfluidic device, grown to confluence, and step-induced with copper sulfate (CuSO4) in LB medium. Images were collected using an Etaluma LumaScope microscope with 20× objective magnification. Step induction was again performed using the “Dial-A-Wave” automated flow control system. The cells were sequentially exposed to copper concentrations of 0 μM, 25 μM, 52 μM, 77 μM, and 99 μM in 6-h windows.

The next assay has as its system E. coli MG1655/Pb8. Description: 18-strain chip induction. In kind it is cell-based. The following applies: Zn6, Pb7, Pb8 in descending magnitude. From the text: (§3) In an embodiment herein, the toxin response data across 18 unique sensing strains were also collected using a new chip design that houses 16 E. coli strains and 2 B. subtilis strains. The B. subtilis NCIB 3610/Amm3 construct is a “lights-off” sensor, meaning that GFP production drops when ammonium is introduced, following a slight increase due to faster growth on this preferred nitrogen source. […] By combining these sensor responses, we can identify cobalt by the unique response of Pb7 alone and lead by the unique combination of Zn6, Pb7, and Pb8 responses.

Assay [4] relates to E. coli MG1655/Pb7. Nature of the assay: 18-strain chip induction. It is filed as cell-based.
Text: as §3

The test system of a further assay is E. coli MG1655/Zn6. Nature of the assay: 18-strain chip induction. In kind it is cell-based. The note with it: Zn6, Pb7, Pb8 in descending magnitude.
Text: as §3

Assay [5] deals with E. coli MG1655/Hg3.
Protocol: For on-chip induction experiments, strains were loaded into the device and grown in M9 minimal medium with 0.4% glucose and 50 μg/ml spectinomycin (for plasmid maintenance) for 2 days in the absence of toxin. Cells were imaged under 4× brightfield and GFP fluorescence filters on an Olympus IX-81 microscope every 2 min for 6 h under these non-inducing conditions to generate a fluorescence baseline. The toxin was then introduced to induce GFP expression and the cells were imaged every 2 min for 6 h.
To determine the response to toxin induction, the raw fluorescence images before and after induction were compared. The image stacks were analyzed using a custom ImageJ script to measure the average GFP signal over time for each cell trap. Any linear trend in the uninduced fluorescence data due to cell growth was subtracted from the data. In this manner, the dynamic signal-to-noise ratio (SNR) was calculated as: (current fluorescence−mean uninduced fluorescence)/(standard deviation of uninduced fluorescence).
This microfluidic platform was then used to measure the response of several toxin responsive promoter constructs identified from the literature and synthesized by Transcriptic. […] Note that SNR values greater than 2 indicate a significant response.

For the molecule `[As]` [Arsenic], the “GFP response of strain Pb7” value in the assay with E. coli MG1655/Pb7 [1] is reported as “smaller response”.

The molecule `[Cd]` [Cadmium] had a threshold of detection in the assay on GFP sensor strains of 0.44 µM. Further, the “GFP response of strain Cd1” value in the assay with E. coli MG1655/Cd1 is listed as “responding”. Further, in the assay with E. coli MG1655/Pb7 [1], the “GFP response of strain Pb7” value was “much larger response”. Besides, the “GFP response of strain Hg3” value in the assay on E. coli MG1655/Hg3 [2] was “responding”.

For `[Cr+6]` [Chromium(VI)], the threshold of detection in the assay on GFP sensor strains was 1.25 µM. Besides, the “GFP response of strain Pb7” value in the assay with E. coli MG1655/Pb7 [1] is on record as “equal magnitude but more rapid response”.

Regarding `[Cu]` [Copper], in the assay with GFP sensor strains, the threshold of detection turned out to be 5 µM. In addition, the “GFP response of strain Cu1” value in the assay on E. coli MG1655/Cu1 is reported as “sensitively responding”. In the assay with E. coli MG1655/Pb7 [1], the “GFP response of strain Pb7” value was “smaller response”. Also, in assay [3], the “copper concentration detected on-chip (GFP)” value worked out at 25 µM.

`[Pb]` [Lead]: in the assay on GFP sensor strains, the threshold of detection stood at 1.8 µM. Moreover, in the assay on E. coli MG1655/Cu1, the “GFP response of strain Cu1” value is “responding at lesser magnitudes”. The “GFP response of strain Cd1” value with E. coli MG1655/Cd1 is given as “responding at lesser magnitudes”. Moreover, the “GFP response of strain Pb7” value is “responding” in the assay on E. coli MG1655/Pb7 [1] and “respond sensitively” in the assay with E. coli MG1655/Pb7 [4]. Further, the “GFP response of strain Pb8” value in the assay with E. coli MG1655/Pb8 is recorded as “respond sensitively”. Moreover, the “GFP response of strain Zn6” value in the assay with E. coli MG1655/Zn6 is recorded as “respond sensitively”.

As for Mercury, the “SNR after 6 h” value in the assay with E. coli MG1655/Hg3 [5] (0.1 μM mercury, 6 h induction, SNR > 2 = significant response) is listed as 20. Besides, the “Concentration Sensed in Microfluidic Device” value in the assay on E. coli MG1655/Hg3 [5] (merR/pmerR from E. coli plasmid, synthetic RBS) was 0.1 µM. The molecule also yielded a threshold of detection in the assay with GFP sensor strains of 1 µM. Also, the “GFP response of strain Hg3” value in the assay with E. coli MG1655/Hg3 [2] is given as “sensitively responding”.
